Laboratory results taken from US9340590B2 (priority 2011, dated 2016).
Where two headings read alike, the source gives them in different places. Positions of bridges follow the written chain, without caps; N, C: chain ends. Non-standard residues stand in square brackets, D forms with d. Residues, ends and D or L forms follow the SMILES beside them. Lys(Me2) = CN(C)CCCC[C@H](N)C(=O)O

Experiments:
Assay in all cases: cell-based
hNav1.7 [1] = biological target: T1, hNav1.7 (Homo sapiens, UniProt Q15858); details: Nav1.7 Use IC50
T1 sequence (Q15858 whole entry, looked up): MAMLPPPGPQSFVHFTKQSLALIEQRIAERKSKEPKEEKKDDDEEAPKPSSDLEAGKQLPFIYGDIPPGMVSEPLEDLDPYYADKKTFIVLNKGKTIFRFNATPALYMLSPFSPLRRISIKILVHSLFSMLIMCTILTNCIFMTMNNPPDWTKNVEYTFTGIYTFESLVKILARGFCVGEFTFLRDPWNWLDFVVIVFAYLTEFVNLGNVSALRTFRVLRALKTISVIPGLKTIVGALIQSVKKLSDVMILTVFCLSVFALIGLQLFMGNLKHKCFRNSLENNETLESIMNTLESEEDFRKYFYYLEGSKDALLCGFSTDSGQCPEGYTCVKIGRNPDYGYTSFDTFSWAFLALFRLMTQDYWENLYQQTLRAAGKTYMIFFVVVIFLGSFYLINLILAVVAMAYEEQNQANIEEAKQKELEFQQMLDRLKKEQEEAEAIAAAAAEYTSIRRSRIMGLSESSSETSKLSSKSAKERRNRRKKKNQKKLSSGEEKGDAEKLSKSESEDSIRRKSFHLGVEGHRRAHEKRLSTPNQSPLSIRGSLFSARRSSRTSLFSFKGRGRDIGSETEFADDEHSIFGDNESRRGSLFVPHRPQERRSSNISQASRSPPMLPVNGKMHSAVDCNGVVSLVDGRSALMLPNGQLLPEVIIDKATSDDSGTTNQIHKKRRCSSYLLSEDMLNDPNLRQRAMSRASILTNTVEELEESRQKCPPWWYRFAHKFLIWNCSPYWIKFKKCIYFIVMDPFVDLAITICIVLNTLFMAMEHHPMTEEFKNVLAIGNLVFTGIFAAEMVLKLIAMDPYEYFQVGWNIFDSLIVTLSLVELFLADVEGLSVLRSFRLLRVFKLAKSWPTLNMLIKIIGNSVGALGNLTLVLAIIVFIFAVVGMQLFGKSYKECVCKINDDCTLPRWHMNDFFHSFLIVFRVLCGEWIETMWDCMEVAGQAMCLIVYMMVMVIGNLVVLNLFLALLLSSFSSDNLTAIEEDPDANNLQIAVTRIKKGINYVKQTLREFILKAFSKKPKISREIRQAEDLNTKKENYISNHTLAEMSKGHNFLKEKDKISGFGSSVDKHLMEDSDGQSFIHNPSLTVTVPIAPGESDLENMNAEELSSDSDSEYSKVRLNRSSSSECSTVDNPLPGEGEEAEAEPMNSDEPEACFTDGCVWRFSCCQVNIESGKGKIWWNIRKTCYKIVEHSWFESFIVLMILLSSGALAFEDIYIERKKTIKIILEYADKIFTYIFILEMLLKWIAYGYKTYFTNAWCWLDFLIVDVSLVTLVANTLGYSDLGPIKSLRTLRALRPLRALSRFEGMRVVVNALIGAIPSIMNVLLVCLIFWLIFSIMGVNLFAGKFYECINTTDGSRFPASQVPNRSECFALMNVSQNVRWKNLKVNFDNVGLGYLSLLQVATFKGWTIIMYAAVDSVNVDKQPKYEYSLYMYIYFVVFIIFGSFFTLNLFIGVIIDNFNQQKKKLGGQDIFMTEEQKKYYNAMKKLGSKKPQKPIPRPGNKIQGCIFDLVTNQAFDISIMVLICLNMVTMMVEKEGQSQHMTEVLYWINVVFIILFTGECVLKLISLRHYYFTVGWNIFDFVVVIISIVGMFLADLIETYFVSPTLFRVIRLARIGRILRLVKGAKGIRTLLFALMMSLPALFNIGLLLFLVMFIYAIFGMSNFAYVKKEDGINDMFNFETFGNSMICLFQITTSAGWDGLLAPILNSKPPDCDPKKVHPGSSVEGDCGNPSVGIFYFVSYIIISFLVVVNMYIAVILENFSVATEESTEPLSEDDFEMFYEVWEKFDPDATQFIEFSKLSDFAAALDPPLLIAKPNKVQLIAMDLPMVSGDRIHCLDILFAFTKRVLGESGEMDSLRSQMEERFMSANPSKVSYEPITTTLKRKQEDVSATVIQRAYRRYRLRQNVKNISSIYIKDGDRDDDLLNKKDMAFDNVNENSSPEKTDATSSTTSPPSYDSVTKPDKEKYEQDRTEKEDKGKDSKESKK

hNav1.5 [2] = biological target: T2, hNav1.5 (Homo sapiens, UniProt Q14524)
T2 sequence (Q14524 whole entry, looked up): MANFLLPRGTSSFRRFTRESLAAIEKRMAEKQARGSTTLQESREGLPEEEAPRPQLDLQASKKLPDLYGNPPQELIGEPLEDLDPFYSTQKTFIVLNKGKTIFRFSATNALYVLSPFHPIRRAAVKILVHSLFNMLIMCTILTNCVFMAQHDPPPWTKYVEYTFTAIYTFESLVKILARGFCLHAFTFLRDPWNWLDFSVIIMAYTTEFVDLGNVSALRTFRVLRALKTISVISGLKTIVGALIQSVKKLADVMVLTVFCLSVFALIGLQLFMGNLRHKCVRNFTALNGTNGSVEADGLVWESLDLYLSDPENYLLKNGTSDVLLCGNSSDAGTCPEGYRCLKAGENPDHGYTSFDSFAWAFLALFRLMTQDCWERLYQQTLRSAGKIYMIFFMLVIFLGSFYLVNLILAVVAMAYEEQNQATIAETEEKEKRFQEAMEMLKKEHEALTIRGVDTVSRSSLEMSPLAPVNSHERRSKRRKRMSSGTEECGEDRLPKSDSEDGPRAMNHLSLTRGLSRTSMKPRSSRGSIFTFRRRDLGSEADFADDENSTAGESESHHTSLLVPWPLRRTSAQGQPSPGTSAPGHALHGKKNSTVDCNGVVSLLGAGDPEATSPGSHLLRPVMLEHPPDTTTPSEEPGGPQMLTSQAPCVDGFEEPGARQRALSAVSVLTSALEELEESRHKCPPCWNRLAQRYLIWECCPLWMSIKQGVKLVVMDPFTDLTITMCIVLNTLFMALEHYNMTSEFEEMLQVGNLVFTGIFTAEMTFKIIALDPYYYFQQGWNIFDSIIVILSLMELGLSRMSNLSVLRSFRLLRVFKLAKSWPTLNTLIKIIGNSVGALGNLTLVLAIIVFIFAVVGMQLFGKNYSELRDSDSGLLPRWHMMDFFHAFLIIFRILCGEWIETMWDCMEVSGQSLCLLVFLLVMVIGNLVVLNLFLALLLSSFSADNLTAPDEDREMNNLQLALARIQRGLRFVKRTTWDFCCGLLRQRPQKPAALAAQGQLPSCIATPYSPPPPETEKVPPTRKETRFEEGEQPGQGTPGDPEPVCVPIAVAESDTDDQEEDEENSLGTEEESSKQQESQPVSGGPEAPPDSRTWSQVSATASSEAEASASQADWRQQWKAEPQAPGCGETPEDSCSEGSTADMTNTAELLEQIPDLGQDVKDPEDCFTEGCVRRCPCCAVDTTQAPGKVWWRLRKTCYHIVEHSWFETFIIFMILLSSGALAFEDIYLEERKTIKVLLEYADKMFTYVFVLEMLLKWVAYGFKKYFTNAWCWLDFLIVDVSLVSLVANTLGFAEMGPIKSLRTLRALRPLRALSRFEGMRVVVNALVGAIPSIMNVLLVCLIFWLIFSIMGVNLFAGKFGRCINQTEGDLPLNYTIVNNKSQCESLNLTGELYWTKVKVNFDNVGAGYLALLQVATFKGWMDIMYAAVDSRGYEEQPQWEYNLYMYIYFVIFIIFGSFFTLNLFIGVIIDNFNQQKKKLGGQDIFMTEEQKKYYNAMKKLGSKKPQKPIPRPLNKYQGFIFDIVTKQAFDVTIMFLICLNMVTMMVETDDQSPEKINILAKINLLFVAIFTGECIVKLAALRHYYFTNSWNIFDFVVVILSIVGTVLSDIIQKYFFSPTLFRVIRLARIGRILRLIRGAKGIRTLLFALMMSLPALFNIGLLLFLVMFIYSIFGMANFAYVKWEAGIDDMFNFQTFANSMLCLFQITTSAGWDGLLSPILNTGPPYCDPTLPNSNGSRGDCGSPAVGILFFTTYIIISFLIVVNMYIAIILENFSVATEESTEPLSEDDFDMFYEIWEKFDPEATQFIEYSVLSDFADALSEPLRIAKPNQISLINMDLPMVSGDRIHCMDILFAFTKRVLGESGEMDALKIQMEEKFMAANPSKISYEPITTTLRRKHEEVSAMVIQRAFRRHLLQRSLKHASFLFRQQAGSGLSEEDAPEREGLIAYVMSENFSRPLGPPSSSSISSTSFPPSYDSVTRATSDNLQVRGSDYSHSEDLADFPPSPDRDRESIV

hNav1.7 [3] = biological target: T1, hNav1.7; format: cell-based
hNav1.3 = hNav1.3 (Homo sapiens, UniProt Q9NY46); details: IonWorks Quattro, read-out: IWQ Use Nav1.3
hNav1.5 [4] = biological target: T2, hNav1.5; remark: listed apart in the source
[5] = clamped to −110 mV, depolarized to −10 mV, 5 min after compound, n=2
[6] = IonWorks Quattro, clamped to −110 mV, depolarized to −10 mV, 5 min after compound, n=2, read-out: IWQ Use Nav1.5
[7] = IonWorks Quattro, clamped to −110 mV, depolarized to −10 mV, 5 min after compound, n=2, read-out: IWQ Use Nav1.7
[8] = IonWorks Quattro, use-dependent block, hNav1.5, read-out: IWQ Use Nav1.5
[9] = IonWorks Quattro, use-dependent block, hNav1.7, read-out: IWQ Use Nav1.7

| SMILES | IC50 (hNav1.7 [1]) [nM] | IC50 (hNav1.5 [2]) [nM] | IC50 (hNav1.7 [3]) [nM] | IC50 (hNav1.3; [5]) [nM] | IC50 (hNav1.5 [4]; [6]) [nM] | IC50 (hNav1.7 [3]; [7]) [nM] | IC50 (hNav1.5 [4]; IWQ Use Nav1.5) [nM] | IC50 (hNav1.3; use-dependent block, hNav1.3) [nM] | IC50 (hNav1.5 [4]; [8]) [nM] | IC50 (hNav1.7 [3]; [9]) [nM] |
| --- | --- | --- | --- | --- | --- | --- | --- | --- | --- | --- |
| CC[C@H](C)[C@@H]1NC(=O)[C@@H]2CSSC[C@@H]3NC(=O)[C@H](C(C)C)NC(=O)[C@H](CC(C)C)NC(=O)[C@H](CC(N)=O)NC(=O)[C@@H]4CCCN4C(=O)[C@H](CCCNC(=N)N)NC(=O)[C@H](CSSC[C@H](NC(=O)[C@@H](N)CC(=O)O)C(=O)N[C@@H](CC(C)C)C(=O)NCC(=O)N[C@@H](Cc4ccccc4)C(=O)N[C@@H](Cc4c[nH]c5ccccc45)C(=O)N[C@@H](CCCNC(=N)N)C(=O)N[C@@H](CCCCN)C(=O)N2)NC(=O)[C@H](CSSC[C@@H](C(=O)N[C@@H](CCCCN)C(=O)N[C@@H](Cc2ccc(O)cc2)C(=O)N[C@H](C(=O)N[C@@H](Cc2ccccc2)C(N)=O)C(C)C)NC(=O)[C@H](Cc2c[nH]c4ccccc24)NC(=O)[C@H](CCCCN)NC(=O)[C@H](Cc2cnc[nH]2)NC(=O)[C@H]([C@@H](C)O)NC(=O)[C@H](CCCNC(=N)N)NC(=O)[C@H](CO)NC3=O)NC(=O)[C@H](CCCCN)NC(=O)[C@H](CC(=O)O)NC(=O)[C@H](CC(N)=O)NC(=O)[C@H](CC(=O)O)NC(=O)[C@@H]2CCCN2C1=O [SEQ ID NO: 170] (H-DCLGFWRKCIPDNDKCCRPNLVCSRTHKWCKYVF-NH2; disulfide 2-17, 9-23, 16-30) | 22 | 3670 | 13 | 2 | 3580 |  |  |  |  |  |
| CC[C@H](C)[C@@H]1NC(=O)[C@@H]2CSSC[C@@H]3NC(=O)[C@H](C(C)C)NC(=O)[C@H](CC(C)C)NC(=O)[C@H](CC(N)=O)NC(=O)[C@@H]4CCCN4C(=O)[C@H](CCCNC(=N)N)NC(=O)[C@H](CSSC[C@H](NC(=O)[C@@H](N)CC(=O)O)C(=O)N[C@@H](CC(C)C)C(=O)NCC(=O)N[C@@H](Cc4ccccc4)C(=O)N4CCC[C@H]4C(=O)N[C@@H](CCCNC(=N)N)C(=O)N[C@@H](CCCCN)C(=O)N2)NC(=O)[C@H](CSSC[C@@H](C(=O)N[C@@H](CCCCN)C(=O)N[C@@H](Cc2ccc(O)cc2)C(=O)N[C@H](C(=O)N[C@@H](Cc2ccccc2)C(N)=O)C(C)C)NC(=O)[C@H](Cc2c[nH]c4ccccc24)NC(=O)[C@H](CCCCN)NC(=O)[C@H](Cc2c[nH]cn2)NC(=O)[C@H]([C@@H](C)O)NC(=O)[C@H](CCCNC(=N)N)NC(=O)[C@H](CO)NC3=O)NC(=O)[C@H](CCCCN)NC(=O)[C@H](CC(=O)O)NC(=O)[C@H](CC(N)=O)NC(=O)[C@H](CC(=O)O)NC(=O)[C@@H]2CCCN2C1=O [SEQ ID NO: 283] (H-DCLGFPRKCIPDNDKCCRPNLVCSRTHKWCKYVF-NH2; disulfide 2-17, 9-23, 16-30) | 42 | 10000 |  | 760 | 10000 | 790 |  |  |  |  |
| CC[C@H](C)[C@@H]1NC(=O)[C@@H]2CSSC[C@@H]3NC(=O)[C@H](C(C)C)NC(=O)[C@H](CC(C)C)NC(=O)[C@H](CC(N)=O)NC(=O)[C@@H]4CCCN4C(=O)[C@H](CCCNC(=N)N)NC(=O)[C@H](CSSC[C@H](NC(=O)[C@@H](N)CC(=O)O)C(=O)N[C@@H](CC(C)C)C(=O)NCC(=O)N[C@@H](Cc4ccccc4)C(=O)N[C@@H](Cc4ccc(O)cc4)C(=O)N[C@@H](CCCNC(=N)N)C(=O)N[C@@H](CCCCN)C(=O)N2)NC(=O)[C@H](CSSC[C@@H](C(=O)N[C@@H](CCCCN)C(=O)N[C@@H](Cc2ccc(O)cc2)C(=O)N[C@H](C(=O)N[C@@H](Cc2ccccc2)C(N)=O)C(C)C)NC(=O)[C@H](Cc2c[nH]c4ccccc24)NC(=O)[C@H](CCCCN)NC(=O)[C@H](Cc2cnc[nH]2)NC(=O)[C@H]([C@@H](C)O)NC(=O)[C@H](CCCNC(=N)N)NC(=O)[C@H](CO)NC3=O)NC(=O)[C@H](CCCCN)NC(=O)[C@H](CC(=O)O)NC(=O)[C@H](CC(N)=O)NC(=O)[C@H](CC(=O)O)NC(=O)[C@@H]2CCCN2C1=O [SEQ ID NO: 286] (H-DCLGFYRKCIPDNDKCCRPNLVCSRTHKWCKYVF-NH2; disulfide 2-17, 9-23, 16-30) | 69 | 10000 | 970 | 520 |  |  | 6380 |  |  |  |
| CC[C@H](C)[C@@H]1NC(=O)[C@@H]2CSSC[C@@H]3NC(=O)[C@H](C(C)C)NC(=O)[C@H](CC(C)C)NC(=O)[C@H](CC(N)=O)NC(=O)[C@@H]4CCCN4C(=O)[C@H](CCCNC(=N)N)NC(=O)[C@H](CSSC[C@H](NC(=O)[C@@H](N)CC(=O)O)C(=O)N[C@@H](CC(C)C)C(=O)NCC(=O)N[C@@H](Cc4ccccc4)C(=O)N[C@@H](Cc4ccccn4)C(=O)N[C@@H](CCCNC(=N)N)C(=O)N[C@@H](CCCCN)C(=O)N2)NC(=O)[C@H](CSSC[C@@H](C(=O)N[C@@H](CCCCN)C(=O)N[C@@H](Cc2ccc(O)cc2)C(=O)N[C@H](C(=O)N[C@@H](Cc2ccccc2)C(N)=O)C(C)C)NC(=O)[C@H](Cc2c[nH]c4ccccc24)NC(=O)[C@H](CCCCN)NC(=O)[C@H](Cc2c[nH]cn2)NC(=O)[C@H]([C@@H](C)O)NC(=O)[C@H](CCCNC(=N)N)NC(=O)[C@H](CO)NC3=O)NC(=O)[C@H](CCCCN)NC(=O)[C@H](CC(=O)O)NC(=O)[C@H](CC(N)=O)NC(=O)[C@H](CC(=O)O)NC(=O)[C@@H]2CCCN2C1=O [SEQ ID NO: 294] | 42 | 10000 |  | 90 | 9110 | 370 |  |  |  |  |
| CC[C@H](C)[C@@H]1NC(=O)[C@@H]2CSSC[C@@H]3NC(=O)[C@H](C(C)C)NC(=O)[C@H](CC(C)C)NC(=O)[C@H](CC(N)=O)NC(=O)[C@@H]4CCCN4C(=O)[C@H](CCCNC(=N)N)NC(=O)[C@H](CSSC[C@H](NC(=O)[C@@H](N)CC(=O)O)C(=O)N[C@@H](CC(C)C)C(=O)NCC(=O)N[C@@H](Cc4ccccc4)C(=O)N[C@@H](CCSC)C(=O)N[C@@H](CCC(=O)O)C(=O)N[C@@H](CCCCN)C(=O)N2)NC(=O)[C@H](CSSC[C@@H](C(=O)N[C@@H](CCCCN)C(=O)N[C@@H](Cc2ccc(O)cc2)C(=O)N[C@H](C(=O)N[C@@H](Cc2ccccc2)C(N)=O)C(C)C)NC(=O)[C@H](Cc2c[nH]c4ccccc24)NC(=O)[C@H](CCCCN)NC(=O)[C@H](Cc2cnc[nH]2)NC(=O)[C@H]([C@@H](C)O)NC(=O)[C@H](CCCNC(=N)N)NC(=O)[C@H](CO)NC3=O)NC(=O)[C@H](CCCCN)NC(=O)[C@H](CC(=O)O)NC(=O)[C@H](CC(N)=O)NC(=O)[C@H](CC(=O)O)NC(=O)[C@@H]2CCCN2C1=O [[Glu7]GpTx-1(1-34)] (H-DCLGFMEKCIPDNDKCCRPNLVCSRTHKWCKYVF-NH2; disulfide 2-17, 9-23, 16-30) | 98 | > 10000 | 880 |  |  |  |  | 1680 | 19100 |  |
| CC[C@H](C)[C@@H]1NC(=O)[C@@H]2CSSC[C@@H]3NC(=O)[C@H](C(C)C)NC(=O)[C@H](CC(C)C)NC(=O)[C@H](CC(N)=O)NC(=O)[C@@H]4CCCN4C(=O)[C@H](CCCNC(=N)N)NC(=O)[C@H](CSSC[C@H](NC(=O)[C@@H](N)CC(=O)O)C(=O)N[C@@H](CC(C)C)C(=O)NCC(=O)N[C@@H](Cc4ccccc4)C(=O)N[C@@H](CCSC)C(=O)N[C@@H](CCCCN(C)C)C(=O)N[C@@H](CCCCN)C(=O)N2)NC(=O)[C@H](CSSC[C@@H](C(=O)N[C@@H](CCCCN)C(=O)N[C@@H](Cc2ccc(O)cc2)C(=O)N[C@H](C(=O)N[C@@H](Cc2ccccc2)C(N)=O)C(C)C)NC(=O)[C@H](Cc2c[nH]c4ccccc24)NC(=O)[C@H](CCCCN)NC(=O)[C@H](Cc2c[nH]cn2)NC(=O)[C@H]([C@@H](C)O)NC(=O)[C@H](CCCNC(=N)N)NC(=O)[C@H](CO)NC3=O)NC(=O)[C@H](CCCCN)NC(=O)[C@H](CC(=O)O)NC(=O)[C@H](CC(N)=O)NC(=O)[C@H](CC(=O)O)NC(=O)[C@@H]2CCCN2C1=O [[K(Me2)7]GpTx-1(1-34)] (H-DCLGFM[Lys(Me2)]KCIPDNDKCCRPNLVCSRTHKWCKYVF-NH2; disulfide 2-17, 9-23, 16-30) | 20 | > 10000 |  |  |  |  |  | 270 | 13300 | 820 |
| CC[C@H](C)[C@@H]1NC(=O)[C@@H]2CSSC[C@@H]3NC(=O)[C@H](C(C)C)NC(=O)[C@H](CC(C)C)NC(=O)[C@H](CC(N)=O)NC(=O)[C@@H]4CCCN4C(=O)[C@H](CCCNC(=N)N)NC(=O)[C@H](CSSC[C@H](NC(=O)[C@@H](N)CC(=O)O)C(=O)N[C@@H](CC(C)C)C(=O)NCC(=O)N[C@@H](Cc4ccccc4)C(=O)N[C@@H](CCSC)C(=O)N[C@@H](CCCNC(=N)N)C(=O)N[C@@H](CCCCN(C)C)C(=O)N2)NC(=O)[C@H](CSSC[C@@H](C(=O)N[C@@H](CCCCN)C(=O)N[C@@H](Cc2ccc(O)cc2)C(=O)N[C@H](C(=O)N[C@@H](Cc2ccccc2)C(N)=O)C(C)C)NC(=O)[C@H](Cc2c[nH]c4ccccc24)NC(=O)[C@H](CCCCN)NC(=O)[C@H](Cc2c[nH]cn2)NC(=O)[C@H]([C@@H](C)O)NC(=O)[C@H](CCCNC(=N)N)NC(=O)[C@H](CO)NC3=O)NC(=O)[C@H](CCCCN)NC(=O)[C@H](CC(=O)O)NC(=O)[C@H](CC(N)=O)NC(=O)[C@H](CC(=O)O)NC(=O)[C@@H]2CCCN2C1=O [[K(Me2)8]GpTx-1(1-34)] | 4 | > 10000 |  |  |  |  |  | 180 | 9460 | 190 |
